Data taken from PubChem BioAssay (NCI).
Where “and” joins values, the source holds several entries; their conditions need not be identical. Identical values can stand only once.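 Assay format: 96-well plates, 48-hour exposure. GI50 marks 50% less growth. TGI is the concentration that stops growth completely.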

Experiments:
Test in all cases: growth of human tumour cells (NCI), 48 h
[1] = system: A549 NSCLC
[2] = system: EKVX NSCLC
[3] = system: HCC-2998 colon
[4] = system: HT29 colon
[5] = system: MALME-3M melanoma
[6] = system: OVCAR-8 ovarian
[7] = system: RPMI-8226 leukemia
[8] = system: RXF 393 renal
[9] = system: SK-OV-3 ovarian
[10] = system: SNB-19 CNS

SMILES | GI50 [1] | TGI [1] [µM] | GI50 [2] [µM] | TGI [2] [µM] | GI50 [3] | TGI [3] | GI50 [4] | TGI [4] | GI50 [5] | TGI [5] | GI50 [6] | TGI [6] [µM] | GI50 [7] | TGI [7] | GI50 [8] | TGI [8] | GI50 [9] | TGI [9] [µM] | GI50 [10] | TGI [10] [µM]
Nc1cc(-c2ccc(Cl)cc2)nn1-c1nnc(/C=C/c2ccco2)c(=O)[nH]1 | 3.46 µM | 22.2 | 4.11 | > 55.7 | 6.6 µM | > 84.5 µM | 6.61 µM | > 100 µM | 7.44 µM | 54.6 µM | 4.09 µM | 33 | 1.54 µM | > 48.1 µM | 9.91 µM | 34.7 µM | 6.09 µM | > 86.2 | 5.11 µM | > 83.3
CCOC(=O)C1(Cc2ccc3ccccc3c2)CCCCC(=O)N1 (stereo not drawn) |  | > 100 |  | > 100 |  | 66.6 µM |  | > 100 µM |  | 86.5 µM |  | > 100 |  | 58.2 µM |  | > 100 µM |  | > 100 |  | > 100
C=C1C(=O)C23C(O)C1CC[C@H]2C12CCCC(C)(COC(C)=O)[C@H]1[C@H](O)[C@]3(O)OC2 (stereo partly drawn) |  | 9.95 |  | 9.67 |  | 3.32 µM |  | 3.36 µM |  | 3.01 µM |  | 3.52 |  | 1.76 µM |  | 1.58 µM |  | 13.3 |  | 7.03
COC(=O)C1C(=O)N(CCc2c[nH]c3ccccc23)C[C@@H]2CCC(=O)C[C@H]12 (stereo partly drawn) |  | > 100 |  | > 100 |  | > 100 µM |  | > 100 µM |  | > 100 µM |  | > 100 |  | > 100 µM |  | > 100 µM |  | > 100 |  | > 100
O=C(O)c1ccccc1C(=O)c1ccc2c(c1)Cc1ccccc1-2 |  | > 100 |  | > 100 |  | 88 µM |  | > 100 µM |  | > 100 µM |  | > 100 |  | > 100 µM |  | > 100 µM |  | > 100 |  | > 100
O=C(Cl)C1=C(c2ccccc2)C1c1ccccc1 (stereo not drawn) |  | > 100 |  | > 100 |  | > 100 µM |  | > 100 µM |  | > 100 µM |  | > 100 |  | > 100 µM |  | > 100 µM |  | > 100 |  | > 100
COc1ccc(C2Oc3c(c(O)cc4c3[C@H](c3ccc(O)cc3O)[C@H](O)C(c3ccc(O)c(O)c3)O4)C[C@@H]2O)cc1O (stereo partly drawn) |  | > 100 |  | > 100 |  | > 100 µM |  | > 100 µM |  | > 100 µM |  | > 100 |  | > 100 µM |  | > 100 µM |  | > 100 |  | > 100
COc1ccc(F)c(F)c1C(=O)c1cnc(NC2CCN(S(C)(=O)=O)CC2)nc1N | 0.422 µM and 0.397 µM | > 26.5 | 0.923 | 7.73 | 0.961 µM and 0.987 µM | > 26.8 µM and 5.65 µM | 0.42 µM and 0.341 µM | 7.68 µM and > 9.06 µM | 1.04 µM and 1.49 µM | 4.79 µM and 5.38 µM | 1.18 µM and 0.58 µM | > 100 | 0.791 µM and 0.353 µM | 4.98 µM and 5.57 µM | 0.286 µM and 0.149 µM | 1.48 µM and 0.423 µM | 4.35 µM and 4.24 µM | > 100 | 0.576 µM and 0.445 µM | > 100
CC1c2ccccc2N=C2SC(=S)N3CCN=C3N21 (stereo not drawn) | > 100 µM | > 100 | 4.33 | > 100 | > 100 µM | > 100 µM | > 100 µM | > 100 µM | > 100 µM | > 100 µM | > 100 µM | > 100 | > 100 µM | > 100 µM | > 100 µM | > 100 µM | > 100 µM | > 100 | > 100 µM | > 100
O=C1/C(=C/c2ccc([N+](=O)[O-])cc2)COc2ccc(O)cc21 | 78 µM | > 100 | 42.7 | > 100 | 1.74 µM | 3.21 µM |  |  | 13.9 µM | 75.2 µM | 5.88 µM | > 100 | 0.326 µM | 1.65 µM | 2.45 µM | 17.7 µM | > 100 µM | > 100 | 4.29 µM | 30.8
O=C(c1cccs1)C1NO[N+]([O-])=C1c1cccs1 (stereo not drawn) | 9.89 µM | 34.4 | 3.71 | 10.9 | 17.2 µM | 31.7 µM | 1.94 µM | 3.65 µM | 0.517 µM | 1.19 µM | 2.9 µM | > 21.9 | 2.36 µM | 6.2 µM | 1.68 µM | 3.42 µM | 18.6 µM | 32.8 | 29.9 µM | > 79.2
Cc1cccc(N=Nc2ccc(N=Nc3c(O)ccc4ccccc34)cc2C)c1 |  | > 100 |  | > 100 |  | > 100 µM |  | > 100 µM |  | 5.34 µM |  | 60.3 |  | > 100 µM |  | > 100 µM |  | 92.4 |  | > 100
c1cnn2ncc(-c3ccnc(Nc4ccc5c(c4)OCCO5)n3)c2c1 | 0.0753 µM | 3.07 | 0.0997 | 1.13 | 0.0911 µM | 0.514 µM | 0.0691 µM | 0.358 µM | 0.0833 µM | 0.276 µM | 0.0687 µM | > 25 | 0.0783 µM | 0.388 µM | 0.0535 µM | 0.137 µM | 0.178 µM | > 25 | 0.0882 µM | > 25
O=[N+]([O-])c1ccc(-c2cc3c(Nc4ccc(Cl)c(C(F)(F)F)c4)ncnc3s2)cc1 | 1.38 µM | > 100 | 2.61 | > 100 | 2.02 µM | > 100 µM | 1.49 µM | > 100 µM | 1.51 µM | 4.19 µM | 2.67 µM | > 100 | 0.555 µM | 2.81 µM | 1.79 µM | 6.19 µM | 2.77 µM | > 26.3 | 1.29 µM | > 86.4
CC(=Nc1ccc(S(N)(=O)=O)cc1)c1c(O)[nH]c2ccccc12 | > 25 µM | > 25 | > 25 | > 25 | > 25 µM | > 25 µM | > 25 µM | > 25 µM | > 25 µM | > 25 µM | > 25 µM | > 25 | > 25 µM | > 25 µM | > 25 µM | > 25 µM | > 12.2 µM | > 25 | > 25 µM | > 25
